From ChEMBL document CHEMBL1135441, “Elevation of ligand binding to muscarinic M(2) acetylcholine receptors by bis(ammonio)alkane-type allosteric modulators” (J Med Chem, 2002) come the findings set out here.

The target in the experiment is Muscarinic acetylcholine receptor M2 (Sus scrofa) (UniProt P06199). The experiment in a line: Binding of [3H]N-methylscopolamine at porcine heart Muscarinic acetylcholine receptor M2 and negative log of the equilibrium dissociation constant was reported.
Muscarinic acetylcholine receptor M2 (Sus scrofa), sequence (P06199 whole entry, looked up): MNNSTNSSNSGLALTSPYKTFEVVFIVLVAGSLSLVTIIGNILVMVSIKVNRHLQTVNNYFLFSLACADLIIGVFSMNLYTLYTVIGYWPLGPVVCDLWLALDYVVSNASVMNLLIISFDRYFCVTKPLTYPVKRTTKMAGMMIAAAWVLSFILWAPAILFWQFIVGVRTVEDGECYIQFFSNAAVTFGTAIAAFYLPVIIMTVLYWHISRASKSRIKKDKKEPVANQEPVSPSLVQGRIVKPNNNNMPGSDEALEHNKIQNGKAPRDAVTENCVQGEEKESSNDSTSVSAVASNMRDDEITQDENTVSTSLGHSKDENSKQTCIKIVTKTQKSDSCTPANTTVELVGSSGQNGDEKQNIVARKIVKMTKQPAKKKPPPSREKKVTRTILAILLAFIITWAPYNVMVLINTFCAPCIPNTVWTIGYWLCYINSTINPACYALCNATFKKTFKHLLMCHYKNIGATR
For the compound `Cc1ccc2c(c1)C(=O)N(CCC[N+](C)(C)CCCCCC[N+](C)(C)CC(C)(C)CN1C(=O)c3ccc(C)cc3C1=O)C2=O`, the pKA worked out at 7.41.

Take `CC(C)(CN1C(=O)c2ccccc2C1=O)C[N+](C)(C)CCCCCC[N+](C)(C)CC(C)(C)CN1C(=O)c2ccccc2C1=O`: the pKA came to 7.08.

Consider `Cc1ccc2c(c1)C(=O)N(CCC[N+](C)(C)CCCCCC[N+](C)(C)CCCN1C(=O)c3ccccc3C1=O)C2=O`, for which the pKA was determined as 6.89.

`CC(C)(CN1C(=O)c2ccccc2C1=O)C[N+](C)(C)CCCCCC[N+](C)(C)CCCN1C(=O)c2ccccc2C1=O` came in with a pKA of 6.9.

As to `Cc1ccc2c(c1)C(=O)N(CC(C)(C)C[N+](C)(C)CCCCCC[N+](C)(C)CC(C)(C)CN1C(=O)c3ccc(C)cc3C1=O)C2=O`, the pKA was 7.21.

Compound `Cc1ccc2c(c1)C(=O)N(CCC[N+](C)(C)CCCCCC[N+](C)(C)CCCN1C(=O)c3ccc(C)cc3C1=O)C2=O` returned a pKA of 7.08.

`C[N+](C)(CCCCCC[N+](C)(C)CCCN1C(=O)c2ccccc2C1=O)CCCN1C(=O)c2ccccc2C1=O` had a pKA of 6.53.

In turn, `Cc1ccc2c(c1)C(=O)N(CC(C)(C)C[N+](C)(C)CCCCCC[N+](C)(C)CCCN1C(=O)c3ccccc3C1=O)C2=O` registered a pKA of 7.26.

`Cc1ccc2c(c1)C(=O)N(CCC[N+](C)(C)CCCCCC[N+](C)(C)CC(C)(C)CN1C(=O)c3ccccc3C1=O)C2=O` displayed a pKA of 7.2.
